Consider 17 compounds from US20260109708A1, “COMPOUNDS AND COMPOSITIONS USEFUL AS DEGRADERS OF MK2 KINASE” (Celgene Corporation, priority 2023, published 2026).

SMILES strings stand for the structures. pIC50: −log10 of the molar value.

In the assay the target is T1, p38a activated, mitogen-activated protein kinase-activated protein kinase 2 (MAPKAP-K2 or MK2) enzyme (Homo sapiens, UniProt P49137).
T1 construct: purchased Invitrogen PV3317
T1 sequence (P49137 whole entry): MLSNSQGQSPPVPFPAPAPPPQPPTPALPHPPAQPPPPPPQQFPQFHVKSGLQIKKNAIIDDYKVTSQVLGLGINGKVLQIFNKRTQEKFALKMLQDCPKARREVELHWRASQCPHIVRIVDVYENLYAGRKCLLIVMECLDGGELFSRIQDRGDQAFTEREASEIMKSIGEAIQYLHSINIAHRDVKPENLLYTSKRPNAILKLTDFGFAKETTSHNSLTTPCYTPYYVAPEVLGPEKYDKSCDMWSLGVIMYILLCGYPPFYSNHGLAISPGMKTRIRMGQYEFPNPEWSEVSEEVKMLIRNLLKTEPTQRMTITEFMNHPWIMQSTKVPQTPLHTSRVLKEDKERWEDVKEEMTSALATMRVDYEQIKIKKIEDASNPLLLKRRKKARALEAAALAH
The experiment in a line: MK2 OMNIA biochemical assay (AssayQuant continuous-read kinase assay). Conditions: [MK-2]=0.05 nM, [ATP]=100 μM, [AQT0425]=10 μM. An excerpt:
Example 56.2. Mitogen-Activated Protein Kinase-Activated Protein Kinase 2 AssayQuant Technologies® Assay for Compound Potency Assessment (MK2 OMNIA Biochemical Assay)
The protocol below describes a continuous-read kinase assay optimized to measure potency of compounds against p38a activated, mitogen-activated protein kinase-activated protein kinase 2 (MAPKAP-K2 or MK2) enzyme.
A 1.25× stock solution of MK2 (PV3317, from Invitrogen) and a 5× stock solution of ATP and Sox conjugated peptide substrate, AQT0425 (CSKS-AQT0425B, from AssayQuant Technologies), were prepared in 1× kinase reaction buffer consisting of 50 mM HEPES, pH 7.5, 0.01% Brij-35, 0.55 mM EGTA, 10 mM MgCl2 and 1 mM DTT.
10 μL of the ATP and substrate solution mix was added to a Coming (3574) 384-well, white, non-binding surface microtiter plate containing 0.5 μL of serially diluted test compounds prepared in DMSO. The reactions were started with the addition of 40 μL of the enzyme solution and monitored every 71 seconds for 240 min at kex 360/λem 485 in a Synergy H4 plate reader from BioTek at room temperature.
The initial linear portions of the net progress curves were fit according to a linear equation to yield the slope and percentage of inhibition (% inhibition) at each compound concentration. The net progress curves obtained during the entirety of reactions were also fit according to an ascending single-exponential equation (Eq. 1) to yield Vobs values at each compound concentration. Plots of % Inhibition versus degrader concentrations were fit according to a dose-response equation (Eq. 2) to generate IC50 and Hill slope values while plots of Vobs versus degrader concentration were fit according to Equation 3 (Eq. 3) to generate apparent Kinact values using the GraphPad PRISM software.
where F is the fluorescence intensity from the plate reader, V0 is a constant reflecting the relationship between the instrument readout and product concentration, t is time, e is Euler's number, and Vobs is the observed inactivation rate constant.
where % Inhibition is percentage of inhibition, IC50 is half maximal inhibitory concentration, [I] is the degraders concentration, and n is the Hill slope.
where kobs is the observed inactivation rate constant, Kinact is the apparent inactivation rate constant, K1 is the apparent inhibition constant, and [I] is the degrader concentration.
For the compound `C[C@@H]1CNc2c(sc3ccc4nc(-c5ccc(C6CCN(CCN7CCN(c8ccc(C9CCC(=O)NC9=O)cc8)CC7)CC6)cc5)ccc4c23)C(=O)N1` (stereo partly drawn) [Ex 27, 3-(4-(4-(2-(4-(4-((R)-10-Methyl-8-oxo-9,10,11,12-tetrahydro-8H-[1,4]diazepino[5′,6′:4,5]thieno[3,2-f]quinolin-3-yl)phenyl)piperidin-1-yl)ethyl)piperazin-1-yl)phenyl)piperidine-2,6-dione], the negative-log IC50 (pIC50) was > 6.82.
In the case of `C[C@@H]1CNc2c(sc3ccc4nc(-c5ccc(N6CCC(CN7CCN(c8ccc(C9CCC(=O)NC9=O)cc8)CC7)CC6)cc5)ccc4c23)C(=O)N1` (stereo partly drawn) [Ex 38, 3-(4-(4-((1-(4-((R)-10-Methyl-8-oxo-9,10,11,12-tetrahydro-8H-[1,4]diazepino[5′,6′:4,5]thieno[3,2-f]quinolin-3-yl)phenyl)piperidin-4-yl)methyl)piperazin-1-yl)phenyl)piperidine-2,6-dione], the pIC50 was 6.30 to 6.82.
The result for `C[C@@H]1CNc2c(sc3ccc4nc(-c5cccc(N6CCN(C(=O)C(=O)N7CCN(c8ccc9c(C%10CCC(=O)NC%10=O)nn(C)c9c8)CC7)CC6)c5)ccc4c23)C(=O)N1` (stereo partly drawn) [Ex 14, 3-(1-Methyl-6-(4-(2-(4-(3-((R)-10-methyl-8-oxo-9,10,11,12-tetrahydro-8H-[1,4]diazepino[5′,6′:4,5]thieno[3,2-f]quinolin-3-yl)phenyl)piperazin-1-yl)-2-oxoacetyl)piperazin-1-yl)-1H-indazol-3-yl)piperidine-2,6-dione] reads > 6.82.
The value for `C[C@@H]1CNc2c(sc3ccc4nc(-c5cccc(N6CCN(CCN7CCN(c8ccc(C9CCC(=O)NC9=O)cc8)CC7)CC6)c5)ccc4c23)C(=O)N1` (stereo partly drawn) [Ex 11, 3-(4-(4-(2-(4-(3-((R)-10-Methyl-8-oxo-9,10,11,12-tetrahydro-8H-[1,4]diazepino[5′,6′:4,5]thieno[3,2-f]quinolin-3-yl)phenyl)piperazin-1-yl)ethyl)piperazin-1-yl)phenyl)piperidine-2,6-dione] was > 6.82.
`C[C@@H]1CNc2c(sc3ccc4nc(-c5ccc(C(=O)NCCN6CCN(c7ccc(C8CCC(=O)NC8=O)cc7)CC6)cc5F)ccc4c23)C(=O)N1` (stereo partly drawn) [Ex 8, N-(2-(4-(4-(2,6-Dioxopiperidin-3-yl)phenyl)piperazin-1-yl)ethyl)-3-fluoro-4-((R)-10-methyl-8-oxo-9,10,11,12-tetrahydro-8H-[1,4]diazepino[5′,6′:4,5]thieno[3,2-f]quinolin-3-yl)benzamide]: the negative-log IC50 (pIC50) was > 6.82.
With `C[C@@H]1CNc2c(sc3ccc4nc(-c5cccc(C6CCN(CCN7CCN(c8ccc9c(C%10CCC(=O)NC%10=O)nn(C)c9c8)CC7)CC6)c5)ccc4c23)C(=O)N1` (stereo partly drawn) [Ex 19, 3-(1-Methyl-6-(4-(2-(4-(3-((R)-10-methyl-8-oxo-9,10,11,12-tetrahydro-8H-[1,4]diazepino[5′,6′:4,5]thieno[3,2-f]quinolin-3-yl)phenyl)piperidin-1-yl)ethyl)piperazin-1-yl)-1H-indazol-3-yl)piperidine-2,6-dione], the negative logarithm of the IC50 (pIC50) was > 6.82.
The result for `C[C@@H]1CNc2c(sc3ccc4nc(-c5ccc(C(=O)NC6CCN(c7ccc(C8CCC(=O)NC8=O)cc7)CC6)cc5F)ccc4c23)C(=O)N1` (stereo partly drawn) [Ex 7, N-(1-(4-(2,6-Dioxopiperidin-3-yl)phenyl)piperidin-4-yl)-3-fluoro-4-((R)-10-methyl-8-oxo-9,10,11,12-tetrahydro-8H-[1,4]diazepino[5′,6′:4,5]thieno[3,2-f]quinolin-3-yl)benzamide] reads > 6.82.
The result for `C[C@@H]1CNc2c(sc3ccc4nc(-c5ccc(C(=O)NC6CCN(c7ccc8c(C9CCC(=O)NC9=O)nn(C)c8c7)CC6)cc5F)ccc4c23)C(=O)N1` (stereo partly drawn) [Ex 1, N-(1-(3-(2,6-dioxopiperidin-3-yl)-1-methyl-1H-indazol-6-yl)piperidin-4-yl)-3-fluoro-4-((R)-10-methyl-8-oxo-9,10,11,12-tetrahydro-8H-[1,4]diazepino[5′,6′:4,5]thieno[3,2-f]quinolin-3-yl)benzamide] reads > 6.82.
The value for `C[C@@H]1CNc2c(sc3ccc4nc(-c5cn(C6CCN(CCN7CCC(c8ccc(C9CCC(=O)NC9=O)cc8)CC7)CC6)nn5)ccc4c23)C(=O)N1` (stereo partly drawn) [Ex 48, 3-(4-(1-(2-(4-(4-((R)-10-Methyl-8-oxo-9,10,11,12-tetrahydro-8H-[1,4]diazepino[5′,6′:4,5]thieno[3,2-f]quinolin-3-yl)-1H-1,2,3-triazol-1-yl)piperidin-1-yl)ethyl)piperidin-4-yl)phenyl)piperidine-2,6-dione] was > 6.82; that for `C[C@@H]1CNc2c(sc3ccc4nc(-c5ccc(C(=O)NCCN6CCN(c7ccc8c(C9CCC(=O)NC9=O)nn(C)c8c7)CC6)cc5F)ccc4c23)C(=O)N1` (stereo partly drawn) [Ex 2, N-(2-(4-(3-(2,6-dioxopiperidin-3-yl)-1-methyl-1H-indazol-6-yl)piperazin-1-yl)ethyl)-3-fluoro-4-((R)-10-methyl-8-oxo-9,10,11,12-tetrahydro-8H-[1,4]diazepino[5′,6′:4,5]thieno[3,2-f]quinolin-3-yl)benzamide] was > 6.82; that for `C[C@@H]1CNc2c(sc3ccc4nc(-c5cccc(N6CCN(C(=O)C(=O)N7CCN(c8ccc(C9CCC(=O)NC9=O)cc8)CC7)CC6)c5)ccc4c23)C(=O)N1` (stereo partly drawn) [Ex 13, 3-(4-(4-(2-(4-(3-((R)-10-Methyl-8-oxo-9,10,11,12-tetrahydro-8H-[1,4]diazepino[5′,6′:4,5]thieno[3,2-f]quinolin-3-yl)phenyl)piperazin-1-yl)-2-oxoacetyl)piperazin-1-yl)phenyl)piperidine-2,6-dione] was > 6.82.
Regarding `C[C@@H]1CNc2c(sc3ccc4nc(-c5ccc(C(=O)N[C@H]6CC[C@H](CN7CCN(c8ccc(C9CCC(=O)NC9=O)cc8)CC7)CC6)cc5F)ccc4c23)C(=O)N1` (stereo partly drawn) [Ex 9, N-(trans-4-((4-(4-(2,6-Dioxopiperidin-3-yl)phenyl)piperazin-1-yl)methyl)cyclohexyl)-3-fluoro-4-((R)-10-methyl-8-oxo-9,10,11,12-tetrahydro-8H-[1,4]diazepino[5′,6′:4,5]thieno[3,2-f]quinolin-3-yl)benzamide], the negative logarithm of the IC50 (pIC50) was > 6.82.
As for `C[C@@H]1CNc2c(sc3ccc4nc(-c5ccc(C(=O)N[C@H]6C[C@H](CN7CCN(c8ccc9c(C%10CCC(=O)NC%10=O)nn(C)c9c8)CC7)C6)cc5F)ccc4c23)C(=O)N1` (stereo partly drawn) [Ex 3, N-((trans)-3-((4-(3-(2,6-Dioxopiperidin-3-yl)-1-methyl-1H-indazol-6-yl)piperazin-1-yl)methyl)cyclobutyl)-3-fluoro-4-((R)-10-methyl-8-oxo-9,10,11,12-tetrahydro-8H-[1,4]diazepino[5′,6′:4,5]thieno[3,2-f]quinolin-3-yl)benzamide], the negative-log IC50 (pIC50) was > 6.82.
The value for `C[C@@H]1CNc2c(sc3ccc4nc(-n5cc(C6CCN(CCN7CCN(c8ccc(C9CCC(=O)NC9=O)cc8)CC7)CC6)nn5)ccc4c23)C(=O)N1` (stereo partly drawn) [Ex 45, 3-(4-(4-(2-(4-(1-((R)-10-Methyl-8-oxo-9,10,11,12-tetrahydro-8H-[1,4]diazepino[5′,6′:4,5]thieno[3,2-f]quinolin-3-yl)-1H-1,2,3-triazol-4-yl)piperidin-1-yl)ethyl)piperazin-1-yl)phenyl)piperidine-2,6-dione] was > 6.82.
Regarding `C[C@@H]1CNc2c(sc3ccc4nc(-c5cn(C6CCN(CCN7CCN(c8ccc(C9CCC(=O)NC9=O)cc8)CC7)CC6)nn5)ccc4c23)C(=O)N1` (stereo partly drawn) [Ex 49, 3-(4-(4-(2-(4-(4-((R)-10-Methyl-8-oxo-9,10,11,12-tetrahydro-8H-[1,4]diazepino[5′,6′:4,5]thieno[3,2-f]quinolin-3-yl)-1H-1,2,3-triazol-1-yl)piperidin-1-yl)ethyl)piperazin-1-yl)phenyl)piperidine-2,6-dione], the negative logarithm of the IC50 (pIC50) was > 6.82.
The value for `C[C@@H]1COc2c(sc3ccc4nc(-c5ccc(C6CCN(CCN7CCN(c8ccc(C9CCC(=O)NC9=O)cc8)CC7)CC6)cc5)ccc4c23)C(=O)N1` (stereo partly drawn) [Ex 32, 3-(4-(4-(2-(4-(4-((R)-10-Methyl-8-oxo-8,9,10,11-tetrahydro-[1,4]oxazepino[7′,6′:4,5]thieno[3,2-f]quinolin-3-yl)phenyl)piperidin-1-yl)ethyl)piperazin-1-yl)phenyl)piperidine-2,6-dione] was 6.30 to 6.82; that for `C[C@@H]1CNc2c(sc3ccc4nc(-c5cccc(N6CC7CC(C6)N7CCN6CCN(c7ccc8c(C9CCC(=O)NC9=O)nn(C)c8c7)CC6)c5)ccc4c23)C(=O)N1` (stereo partly drawn) [Ex 15, 3-(1-Methyl-6-(4-(2-(3-(3-((R)-10-methyl-8-oxo-9,10,11,12-tetrahydro-8H-[1,4]diazepino[5′,6′:4,5]thieno[3,2-f]quinolin-3-yl)phenyl)-3,6-diazabicyclo[3.1.1]heptan-6-yl)ethyl)piperazin-1-yl)-1H-indazol-3-yl)piperidine-2,6-dione] was > 6.82.

By pIC50 is commonly meant −log10 of the IC50, conventionally taken in molar units.
